Source: patent EP4238972A1, “SUBSTITUTED 1,2,4-THIADIAZOLYL PICOLINAMIDES, SALTS OR N-OXIDES THEREOF AND THEIR USE AS HERBICIDALLY ACTIVE SUBSTANCES” (Bayer AG, priority 2022, dated 2023)

Tests used:
Format in all cases: in vivo
Poa annua [1] = test: Herbicidal pre-emergence action; conditions: visual grading after ca. 3 weeks vs untreated controls
Description: (§1) Seeds of mono- and dicotyledonous weed plants were sown in plastic pots (double sowings with one species of mono- and one species of dicotyledonous weed plants per pot), in sandy loam, and covered with soil. The compounds according to the invention, formulated in the form of wettable powders (WP) or as emulsifiable concentrates (EC), were applied to the surface of the covering soil as an aqueous suspension or as an emulsion, with the addition of 0.5% of an additive, at an application rate of 600 litres of water per hectare (converted). Following treatment, the pots were placed in a greenhouse and kept under optimum growth conditions for the test plants. The visual grading of the damage to the test plants is carried out after ca. 3 weeks in comparison to untreated controls (herbicidal effect in percent (%): 100% effect = plants have died, 0% effect = as control plants). Seeds of mono- and dicotyledonous weed plants were sown in plastic pots (double sowings with one species of mono- and one species of dicotyledonous weed plants per pot), in sandy loam, and covered with soil. The compounds according to the invention, formulated in the form of wettable powders (WP) or as emulsifiable concentrates (EC), were applied to the surface of the covering soil as an aqueous suspension or as an emulsion, with the addition of 0.5% of an additive, at an application rate of 600 litres of water per hectare (converted). Following treatment, the pots were placed in a greenhouse and kept under optimum growth conditions for the test plants. The visual grading of the damage to the test plants is carried out after ca. 3 weeks in comparison to untreated controls (herbicidal effect in percent (%): 100% effect = plants have died, 0% effect = as control plants).

Lolium rigidum [2] = test: Herbicidal pre-emergence action; conditions: visual grading after ca. 3 weeks vs untreated controls
Description: as §1

Stellaria media [3] = test: Herbicidal pre-emergence action; conditions: visual grading after ca. 3 weeks vs untreated controls
Description: as §1

Amaranthus retroflexus [4] = test: Herbicidal pre-emergence action; conditions: visual grading after ca. 3 weeks vs untreated controls
Description: as §1

Stellaria media [5] = test: Herbicidal post-emergence action; conditions: 1280 g/ha, visual assessment after ca. 3 weeks vs untreated controls
Description: (§2) Seeds of mono- and dicotyledonous weed plants were sown in plastic pots (double sowings with one species of mono- and one species of dicotyledonous weed plants per pot), in sandy loam, covered with soil and grown under controlled growth conditions. 2 to 3 weeks after sowing, the test plants were sprayed in the single-leaf stage. The compounds according to the invention, formulated in the form of wettable powders (WP) or as emulsifiable concentrates (EC), were sprayed onto the green plant parts as an aqueous suspension or as an emulsion, with the addition of 0.5% of an additive, at an application rate of 600 litres of water per hectare (converted). The test plants were placed in the greenhouse for ca. 3 weeks under optimum growth conditions, and then the effect of the preparations is assessed visually in comparison with untreated controls (herbicidal effect in percent (%): 100% effect = plants have died, 0% effect = as control plants).

Poa annua [6] = test: Herbicidal post-emergence action; conditions: visual assessment after ca. 3 weeks vs untreated controls
Description: as §2, with “plants). Seeds of mono- and dicotyledonous weed plants were sown in plastic pots (double sowings with one species of mono- and one species of dicotyledonous weed plants per pot), in sandy loam, covered with soil and grown under controlled growth conditions. 2 to 3 weeks after sowing, the test plants were sprayed in the single-leaf stage. The compounds according to the invention, formulated in the form of wettable powders (WP) or as emulsifiable concentrates (EC), are sprayed onto the green plant parts as an aqueous suspension or as an emulsion, with the addition of 0.5% of an additive, at an application rate of 600 litres of water per hectare (converted). The test plants were placed in the greenhouse for ca. 3 weeks under optimum growth conditions, and then the effect of the preparations is assessed visually in comparison with untreated controls (herbicidal effect in percent (%): 100% effect = plants have died, 0% effect = as control plants).” for “plants).”

Kochia scoparia = test: Herbicidal post-emergence action; conditions: visual assessment after ca. 3 weeks vs untreated controls
Description: as §2, with “plants). Seeds of mono- and dicotyledonous weed plants were sown in plastic pots (double sowings with one species of mono- and one species of dicotyledonous weed plants per pot), in sandy loam, covered with soil and grown under controlled growth conditions. 2 to 3 weeks after sowing, the test plants were sprayed in the single-leaf stage. The compounds according to the invention, formulated in the form of wettable powders (WP) or as emulsifiable concentrates (EC), are sprayed onto the green plant parts as an aqueous suspension or as an emulsion, with the addition of 0.5% of an additive, at an application rate of 600 litres of water per hectare (converted). The test plants were placed in the greenhouse for ca. 3 weeks under optimum growth conditions, and then the effect of the preparations is assessed visually in comparison with untreated controls (herbicidal effect in percent (%): 100% effect = plants have died, 0% effect = as control plants).” for “plants).”

Amaranthus retroflexus [7] = test: Herbicidal post-emergence action; conditions: visual assessment after ca. 3 weeks vs untreated controls
Description: as §2, with “plants). Seeds of mono- and dicotyledonous weed plants were sown in plastic pots (double sowings with one species of mono- and one species of dicotyledonous weed plants per pot), in sandy loam, covered with soil and grown under controlled growth conditions. 2 to 3 weeks after sowing, the test plants were sprayed in the single-leaf stage. The compounds according to the invention, formulated in the form of wettable powders (WP) or as emulsifiable concentrates (EC), are sprayed onto the green plant parts as an aqueous suspension or as an emulsion, with the addition of 0.5% of an additive, at an application rate of 600 litres of water per hectare (converted). The test plants were placed in the greenhouse for ca. 3 weeks under optimum growth conditions, and then the effect of the preparations is assessed visually in comparison with untreated controls (herbicidal effect in percent (%): 100% effect = plants have died, 0% effect = as control plants).” for “plants).”

Matricaria inodora [8] = test: Herbicidal pre-emergence action; conditions: visual grading after ca. 3 weeks vs untreated controls
Description: as §1

Alopecurus myosuroides = test: Herbicidal post-emergence action; conditions: 1280 g/ha, visual assessment after ca. 3 weeks vs untreated controls
Description: as §2

Lolium rigidum [9] = test: Herbicidal post-emergence action; conditions: 1280 g/ha, visual assessment after ca. 3 weeks vs untreated controls
Description: as §2

Matricaria inodora [10] = test: Herbicidal post-emergence action; conditions: 1280 g/ha, visual assessment after ca. 3 weeks vs untreated controls
Description: as §2

Veronica persica [11] = test: Herbicidal post-emergence action; conditions: visual assessment after ca. 3 weeks vs untreated controls
Description: as §2, with “plants). Seeds of mono- and dicotyledonous weed plants were sown in plastic pots (double sowings with one species of mono- and one species of dicotyledonous weed plants per pot), in sandy loam, covered with soil and grown under controlled growth conditions. 2 to 3 weeks after sowing, the test plants were sprayed in the single-leaf stage. The compounds according to the invention, formulated in the form of wettable powders (WP) or as emulsifiable concentrates (EC), are sprayed onto the green plant parts as an aqueous suspension or as an emulsion, with the addition of 0.5% of an additive, at an application rate of 600 litres of water per hectare (converted). The test plants were placed in the greenhouse for ca. 3 weeks under optimum growth conditions, and then the effect of the preparations is assessed visually in comparison with untreated controls (herbicidal effect in percent (%): 100% effect = plants have died, 0% effect = as control plants).” for “plants).”

Setaria viridis [12] = test: Herbicidal post-emergence action; conditions: visual assessment after ca. 3 weeks vs untreated controls
Description: as §2, with “plants). Seeds of mono- and dicotyledonous weed plants were sown in plastic pots (double sowings with one species of mono- and one species of dicotyledonous weed plants per pot), in sandy loam, covered with soil and grown under controlled growth conditions. 2 to 3 weeks after sowing, the test plants were sprayed in the single-leaf stage. The compounds according to the invention, formulated in the form of wettable powders (WP) or as emulsifiable concentrates (EC), are sprayed onto the green plant parts as an aqueous suspension or as an emulsion, with the addition of 0.5% of an additive, at an application rate of 600 litres of water per hectare (converted). The test plants were placed in the greenhouse for ca. 3 weeks under optimum growth conditions, and then the effect of the preparations is assessed visually in comparison with untreated controls (herbicidal effect in percent (%): 100% effect = plants have died, 0% effect = as control plants).” for “plants).”

Echinochloa crus-galli [13] = test: Herbicidal pre-emergence action; conditions: 1280 g/ha, visual grading after ca. 3 weeks vs untreated controls
Description: (§3) Seeds of mono- and dicotyledonous weed plants were sown in plastic pots (double sowings with one species of mono- and one species of dicotyledonous weed plants per pot), in sandy loam, and covered with soil. The compounds according to the invention, formulated in the form of wettable powders (WP) or as emulsifiable concentrates (EC), were applied to the surface of the covering soil as an aqueous suspension or as an emulsion, with the addition of 0.5% of an additive, at an application rate of 600 litres of water per hectare (converted). Following treatment, the pots were placed in a greenhouse and kept under optimum growth conditions for the test plants. The visual grading of the damage to the test plants is carried out after ca. 3 weeks in comparison to untreated controls (herbicidal effect in percent (%): 100% effect = plants have died, 0% effect = as control plants).

Setaria viridis [14] = test: Herbicidal pre-emergence action; conditions: 1280 g/ha, visual grading after ca. 3 weeks vs untreated controls
Description: as §3

Veronica persica [15] = test: Herbicidal pre-emergence action; conditions: 1280 g/ha, visual grading after ca. 3 weeks vs untreated controls
Description: as §3

Echinochloa crus-galli [16] = test: Herbicidal post-emergence action; conditions: 1280 g/ha, visual assessment after ca. 3 weeks vs untreated controls
Description: as §2

Row | SMILES | herbicidal effect POAAN (Poa annua [1]; 320 g/ha) [%] | herbicidal effect POAAN (Poa annua [1]; 1280 g/ha) [%] | herbicidal effect LOLRI (Lolium rigidum [2]; 1280 g/ha) [%] | herbicidal effect STEME (Stellaria media [3]; 1280 g/ha) [%] | herbicidal effect AMARE (Amaranthus retroflexus [4]; 1280 g/ha) [%] | herbicidal effect STEME (Stellaria media [5]) [%] | herbicidal effect POAAN (Poa annua [6]; 320 g/ha) [%] | herbicidal effect POAAN (Poa annua [6]; 1280 g/ha) [%] | herbicidal effect KCHSC (Kochia scoparia; 320 g/ha) [%] | herbicidal effect KCHSC (Kochia scoparia; 1280 g/ha) [%] | herbicidal effect AMARE (Amaranthus retroflexus [7]; 1280 g/ha) [%] | herbicidal effect MATIN (Matricaria inodora [8]; 1280 g/ha) [%] | herbicidal effect VERPE (Veronica persica [11]; 320 g/ha) [%] | herbicidal effect VERPE (Veronica persica [11]; 1280 g/ha) [%] | herbicidal effect AMARE (Amaranthus retroflexus [7]; 320 g/ha) [%] | herbicidal effect SETVI (Setaria viridis [12]; 1280 g/ha) [%] | herbicidal effect ECHCG (Echinochloa crus-galli [13]) [%] | other results
1 | O=C(Nc1ncns1)c1nc(Cl)ccc1OC(F)(F)F [Example I-013, 6-chloro-N-(1,2,4-thiadiazol-5-yl)-3-(trifluoromethoxy)pyridine-2-carboxamide] | 100 | 100 | 90 | 90 | 100 | 90 | 90 | 100 | 90 | 100 | 100 | – | – | – | – | – | – | herbicidal effect AMARE (Amaranthus retroflexus [4]; 320 g/ha): 90%
2 | O=C(Nc1nc(Cl)ns1)c1nc(F)ccc1Br [Example I-017, 3-bromo-N-(3-chloro-1,2,4-thiadiazol-5-yl)-6-fluoro-pyridine-2-carboxamide] | 90 | 90 | 90 | 90 | 100 | 90 | 90 | 90 | 90 | 90 | 90 | 100 | 90 | 90 | 90 | 90 | 90 | herbicidal effect LOLRI (Lolium rigidum [2]; 320 g/ha): 90%; herbicidal effect MATIN (Matricaria inodora [8]; 320 g/ha): 100%; herbicidal effect STEME (Stellaria media [3]; 320 g/ha): 90%; herbicidal effect ALOMY (Alopecurus myosuroides): 90%; herbicidal effect LOLRI (Lolium rigidum [9]): 90%; herbicidal effect MATIN (Matricaria inodora [10]): 90%; herbicidal effect SETVI (Setaria viridis [12]; 320 g/ha): 90%; herbicidal effect SETVI (Setaria viridis [14]): 100%
3 | O=C(Nc1ncns1)c1ncc(Cl)cc1C(F)(F)F [Example I-036, 5-chloro-N-(1,2,4-thiadiazol-5-yl)-3-(trifluoromethyl)pyridine-2-carboxamide] | – | – | – | – | 90 | – | – | – | – | – | 90 | – | – | 90 | – | – | – | herbicidal effect VERPE (Veronica persica [15]): 90%
4 | O=C(Nc1ncns1)c1nc(Cl)ccc1Br [Example I-039, 3-bromo-6-chloro-N-(1,2,4-thiadiazol-5-yl)pyridine-2-carboxamide] | – | 90 | – | 90 | 100 | 90 | 90 | 90 | – | – | 100 | 100 | 90 | 100 | 100 | 90 | 90 | herbicidal effect ECHCG (Echinochloa crus-galli [16]): 90%
